Results reported in patent EP0546013B1, “GLUCAGON ANALOGS WITH ASP-9 REPLACEMENTS OR DELETIONS” (THE ROCKEFELLER UNIVERSITY, priority 1990, dated 1997).
Ends that are not written are not given here.

Columns and labels:
adenylate cyclase [1] = details: measured as amides; for pA2 Value: negative logarithm of the antagonist concentration that reduces the response to 1 unit of agonist to that of 0.5 unit; for % Relative Activity: relative potency in stimulating adenylate cyclase
Method: The inhibition index is the molar ratio of antagonist to agonist which reduces the biological response to one half of the value for the agonist in the absence of antagonist. It will be discussed more fully hereinafter.
Adenylate Cyclase Assay. The assay on liver membranes was performed according to Salomon et al. [Salomon, Y., Londos, C. & Rodbell, M. Anal. Biochem. 58, 541, 548 (1974)].
The purpose of the adenylate cyclase assay is to measure the ability of the compound under test to stimulate the activity of adenylate cyclase. The assays are used to measure relative potency, maximum activity and inhibition index.
The inhibition index, defined above, was determined from adenylate cyclase assays by two different protocols. • 1. A glucagon standard curve for cAMP vs glucagon concentration was established. Then another glucagon assay curve was measured in the presence of a constant amount of antagonist. […] A series of tubes were set up containing an amount of glucagon which will produce 90% of maximum response. Increasing amounts of antagonist were then added and the concentration that reduced the response to 45% of maximum was determined.

glucagon receptor = details: prior-art antagonist, background; cited from earlier work
[2] = tested on: another binding system in the hepatocyte membrane; details: prior-art antagonist, background; cited from earlier work
adenylate cyclase [3] = details: prior-art antagonist, background; cited from earlier work

| Compound | pA2 Value (adenylate cyclase [1]) | % Relative Activity (adenylate cyclase [1]) [%] | binding to the glucagon receptor (glucagon receptor) | production of inositol trisphosphate and calcium ions [2] | activation of adenylate cyclase (adenylate cyclase [3]) |
| --- | --- | --- | --- | --- | --- |
| CSCC[C@H](NC(=O)[C@H](CC(C)C)NC(=O)[C@H](Cc1c[nH]c2ccccc12)NC(=O)[C@H](CCC(N)=O)NC(=O)[C@@H](NC(=O)[C@H](Cc1ccccc1)NC(=O)[C@H](CC(=O)O)NC(=O)[C@H](CCC(N)=O)NC(=O)[C@H](C)NC(=O)[C@H](CCCNC(=N)N)NC(=O)[C@H](CCCNC(=N)N)NC(=O)[C@H](CO)NC(=O)[C@H](CC(=O)O)NC(=O)[C@H](CC(C)C)NC(=O)[C@H](Cc1ccc(O)cc1)NC(=O)[C@H](CCCCN)NC(=O)[C@H](CO)NC(=O)[C@H](Cc1ccc(O)cc1)NC(=O)[C@@H](CC(=O)O)NC(=O)[C@H](CO)NC(=O)[C@@H](NC(=O)[C@H](Cc1ccccc1)NC(=O)[C@@H](NC(=O)CNC(=O)[C@H](CCC(N)=O)NC(=O)[C@@H](N)CO)[C@@H](C)O)[C@@H](C)O)C(C)C)C(=O)N[C@@H](CC(N)=O)C(=O)N[C@H](C(N)=O)[C@@H](C)O [compound 10, des-His^1[D-Asp^9]] | 5.9 | <0.0028 | – | – | – |
| CSCC[C@H](NC(=O)[C@H](CC(C)C)NC(=O)[C@H](Cc1c[nH]c2ccccc12)NC(=O)[C@H](CCC(N)=O)NC(=O)[C@@H](NC(=O)[C@H](Cc1ccccc1)NC(=O)[C@H](CC(=O)O)NC(=O)[C@H](CCC(N)=O)NC(=O)[C@H](C)NC(=O)[C@H](CCCNC(=N)N)NC(=O)[C@H](CCCNC(=N)N)NC(=O)[C@H](CO)NC(=O)[C@H](CC(=O)O)NC(=O)[C@H](CC(C)C)NC(=O)[C@H](Cc1ccc(O)cc1)NC(=O)[C@H](CCCCN)NC(=O)[C@H](CO)NC(=O)[C@H](Cc1ccc(O)cc1)NC(=O)[C@@H](CCC(=O)O)NC(=O)[C@H](CO)NC(=O)[C@@H](NC(=O)[C@H](Cc1ccccc1)NC(=O)[C@@H](NC(=O)CNC(=O)[C@H](CCC(N)=O)NC(=O)[C@@H](N)CO)[C@@H](C)O)[C@@H](C)O)C(C)C)C(=O)N[C@@H](CC(N)=O)C(=O)N[C@H](C(N)=O)[C@@H](C)O [compound 11, des-His^1[D-Glu^9]] | 5.4 | <0.0037 | – | – | – |
| COC(=O)CC[C@H](NC(=O)[C@H](CO)NC(=O)[C@@H](NC(=O)[C@H](Cc1ccccc1)NC(=O)[C@@H](NC(=O)CNC(=O)[C@H](CCC(N)=O)NC(=O)[C@@H](N)CO)[C@@H](C)O)[C@@H](C)O)C(=O)N[C@@H](Cc1ccc(O)cc1)C(=O)N[C@@H](CO)C(=O)N[C@@H](CCCCN)C(=O)N[C@@H](Cc1ccc(O)cc1)C(=O)N[C@@H](CC(C)C)C(=O)N[C@@H](CC(=O)O)C(=O)N[C@@H](CO)C(=O)N[C@@H](CCCNC(=N)N)C(=O)N[C@@H](CCCNC(=N)N)C(=O)N[C@@H](C)C(=O)N[C@@H](CCC(N)=O)C(=O)N[C@@H](CC(=O)O)C(=O)N[C@@H](Cc1ccccc1)C(=O)N[C@H](C(=O)N[C@@H](CCC(N)=O)C(=O)N[C@@H](Cc1c[nH]c2ccccc12)C(=O)N[C@@H](CC(C)C)C(=O)N[C@@H](CCSC)C(=O)N[C@@H](CC(N)=O)C(=O)N[C@H](C(N)=O)[C@@H](C)O)C(C)C [compound 12, des-His^1[Glu^9-(OCH3)]] | 7.35 | 0.011 | – | – | – |
| CCCC[C@H](NC(=O)[C@H](CO)NC(=O)[C@@H](NC(=O)[C@H](Cc1ccccc1)NC(=O)[C@@H](NC(=O)CNC(=O)[C@H](CCC(N)=O)NC(=O)[C@@H](N)CO)[C@@H](C)O)[C@@H](C)O)C(=O)N[C@@H](Cc1ccc(O)cc1)C(=O)N[C@@H](CO)C(=O)N[C@@H](CCCCN)C(=O)N[C@@H](Cc1ccc(O)cc1)C(=O)N[C@@H](CC(C)C)C(=O)N[C@@H](CC(=O)O)C(=O)N[C@@H](CO)C(=O)N[C@@H](CCCNC(=N)N)C(=O)N[C@@H](CCCNC(=N)N)C(=O)N[C@@H](C)C(=O)N[C@@H](CCC(N)=O)C(=O)N[C@@H](CC(=O)O)C(=O)N[C@@H](Cc1ccccc1)C(=O)N[C@H](C(=O)N[C@@H](CCC(N)=O)C(=O)N[C@@H](Cc1c[nH]c2ccccc12)C(=O)N[C@@H](CC(C)C)C(=O)N[C@@H](CCSC)C(=O)N[C@@H](CC(N)=O)C(=O)N[C@H](C(N)=O)[C@@H](C)O)C(C)C [compound 18, des - His^1 [Nle^9] glucagon amide] | 7.6 | <0.0012 | – | – | – |
| DSQGTFTSHYSKYLDSRRAQDFVQWLMNT-NH2 [compound 9, Asp^1His^9] | 6.3 | <0.0009 | – | – | – |
| HSQGTFTSYSKYLDSRRAQDFVQWLMNT-NH2 [compound 2, des-Asp^9] | 7.2 | 1.04 | – | – | – |
| Nα- trinitrophenyl [12-homoarginine] glucagon | – | – | does bind to the glucagon receptor | activates another binding system in the hepatocyte membrane leading to the production of inositol trisphosphate and calcium ions | without significant activation of adenylate cyclase |
| SQGTFTSFYSKYLDSRRAQDFVQWLMNT-NH2 [compound 19, des-His^1[Phe^9]] | 6.2 | <0.0003 | – | – | – |
| SQGTFTSGYSKYLDSRRAQDFVQWLMNT-NH2 [compound 15, des - His^1 [Gly^9] glucagon amide] | 6.24 | <0.006 | – | – | – |
| SQGTFTSHYSKYLDSRRAQDFVQWLMNT-NH2 [compound 17, des-His^1[His^9]] | 7.0 | 0.011 | – | – | – |
| SQGTFTSKYSKYLDSRRAQDFVQWLMNT-NH2 [compound 16, des - His^1 [Lys^9] glucagon amide] | 7.35 | <0.0012 | – | – | – |
| SQGTFTSNYSKYLDSRRAQDFVQWLMNT-NH2 [compound 13, des-His^1[Asn^9]] | 6.52 | <0.0026 | – | – | – |
| SQGTFTSQYSKYLDSRRAQDFVQWLMNT-NH2 [compound 14, des-His^1[Gln^9]] | 8.21 | <0.003 | – | – | – |
| SQGTFTSYSKYLDSRRAQDFVQWLMNT-NH2 [compound 20, des-His^1des-Asp^9] | 5.5 | <0.0022 | – | – | – |
